According to patent US11958812B2, “3, 5-disubstituted pyridine and 3, 5-disubstituted pyridazine derivatives and pharmaceutical use of same” (MITSUBISHI TANABE PHARMA CORPORATION, priority 2018, dated 2024):

Legend:
[1] = biological target: T1, ATX activity in plasma (Rattus norvegicus, UniProt Q64610); experiment: Measurement of ATX activity in plasma (ex vivo), rat single administration test; design: species or system male Wistar rat
T1 construct: from tissue; host or cells: plasma of male Wistar rats after oral dosing
Experimental: [Measurement of ATX Activity in Plasma (Ex Vivo)]
A compound administration solution prepared by wet pulverization in a mixer mill (type: MM400) for 10 min and adjusting to a given concentration with 0.5% aqueous carboxymethylcellulose solution was orally administered to male Wistar rat (5-week-old when used) at 5 mL/kg. Blood samples were collected from the cervical vein over time at 8 to 24 hr after administration. The blood was heparin-treated using a micro blood collection tube Capiject (CJ-AL, TERUMO CORPORATION), and the plasma was separated by centrifugation (4° C., 12,000 rpm, for 2 min), and preserved at −80° C. The rats after blood sampling were euthanized by exsanguination from the caudal vena cava under isoflurane inhalation anesthesia. The measurement of ATX activity in plasma was evaluated using the concentration of choline in the plasma, which was liberated from lysophosphatidylcholine (substrate of ATX) by the lysophospholipase D activity of ATX, as an index. An equal amount of 2× assay buffer (200 mM Tris-HCl pH9.0, 10 mM MgCl2, 1 M NaCl, 0.1% Triton X-100) is added to plasma (12 μL) and reacted at 37° C. for 6 hr. The reaction mixture (10 μL) after reaction for 6 hr and 45 μL of reagent R^1 solution (100 mM Tris-HCl pH 8.0, 0.5 mM TOOS, 10 U/mL peroxidase, 0.01% Triton X-100) were added and blended and absorbance at 550-700 nm was measured and used as a prevalue. As the standard, choline chloride was used. 1 mM choline chloride was diluted with 2× assay buffer up to 7 steps in 2-fold serial dilution, R^1 solution was treated similarly and the absorbance was measured. Furthermore, 15 μL of reagent R^2 solution (100 mM Tris-HCl pH 8.0, 1 mM 4-aminoantipyrine, 10 U/mL choline oxidase, 0.01% Triton X-100) was added, and the mixture was reacted at room temperature for 10 min, and absorbance at 550-700 nm was measured. The choline concentration per reaction time was calculated from the difference between the absorbance after R^2 solution addition and prevalue measured before R^2 addition and used as ATX activity value. inhibitory activity (%)=100×{1−[choline concentration (μM) of test substance administration group/choline concentration (μM) of solvent control group]} <calculating formula>

[2] = test system: Macaca fascicularis laser-induced high intraocular pressure model; experiment: Macaca fascicularis laser-induced high intraocular pressure model; format: in vivo; conditions: left eye with high intraocular pressure
Experimental: [Study of Action of ATX Inhibitor on Macaca fascicularis Intraocular Pressure]
The efficacy of ATX inhibitor (Example 5, hereinafter indicated as in example 5 in the Figures) for Macaca fascicularis laser-induced high intraocular pressure model was evaluated using the intraocular pressure lowering action as an index.
A green laser beam at wavelength 532 nm was uniformly irradiated to 360° around of the trabecular meshwork, which is the excretory passage of the aqueous humor, of the left eye alone, whereby high intraocular pressure was induced. The right eye was maintained normal. […]
The required amount of ATX inhibitor (Example 5) was weighed, transferred to an agate mortar and lightly ground. […] The oral vehicle was added to increase the amount and the pH was confirmed to be not exceeding 11.0 (measured value: pH10.55-10.88).
A 0.04 mol/L boric acid/phosphoric acid/acetic acid mixed solution (307 mL) was mixed with a 0.2 mol/L aqueous sodium hydroxide solution (193 mL) (pH about 8.4), pH was adjusted to 8.5 with 1 mol/L hydrochloric acid to prepare Britton-Robinson buffer (pH 8.5). […] 4.5 mg of ATX inhibitor (Example 5) was measured in a 10 mL measuring flask, the instillation administration vehicle (9.6 mL) was added and the mixture was sonicated for 30 min in an ultrasonication washing machine set to about 40° C. […]

- Experimental Example 2 Rat single administration test (inhibitory activity (%) 8 hr after 1 mg/kg oral administration) [1]: 92%
Compound: COc1ccc(-c2cnnc(OC[C@H]3CC[C@H](C(F)(F)F)CC3)c2)nc1[C@H]1C[C@@H]1C(=O)O [Example 5, (1S,2S)-2-[3-methoxy-6-(6-{[trans-4-(trifluoromethyl)cyclohexyl]methoxy}pyridazin-4-yl)pyridin-2-yl]cyclopropanecarboxylic Acid]
- intraocular pressure lowering action, single instillation administration ([2]; instillation, 0.0135 mg/eye, FIG. 8): statistically significant intraocular pressure lowering action
- intraocular pressure lowering action, single oral administration ([2]; oral, 100 mg/kg, FIG. 7): statistically significant intraocular pressure lowering action
